Measured values reported in patent US20200270309A1, “MALEIMIDE GROUP-MODIFIED ANGIOGENESIS INHIBITOR HM-1 AND USE THEREOF” (NANJING ANJI BIOLOGICAL TECHNOLOGY CO., LTD, priority 2017, published 2020).
Peptide text beside a SMILES is read from it. * marks the point of attachment. X28 = O=C1C=CC(=O)N1CCOCCOCCOCCCCCCC(=O)*; X34 = O=C1C=CC(=O)N1CCOCCOCCOCCCCCC(=O)*; X17 = O=C1C=CC(=O)N1CCOCCOCCCCCCCC(=O)*; X33 = O=C1C=CC(=O)N1CCOCCOCCOCCCCC(=O)*; X16 = O=C1C=CC(=O)N1CCOCCOCCCCCCC(=O)*; X70 = O=C1C=CC(=O)N1CCOCCOCCOCCCC(=O)*; X15 = O=C1C=CC(=O)N1CCOCCOCCOCCC(=O)*; X2 = O=C1C=CC(=O)N1CCOCCOCCCCCC(=O)*; X31 = O=C1C=CC(=O)N1CCOCCOCCOCC(=O)*; X3 = O=C1C=CC(=O)N1CCOCCOCCCCC(=O)*

Test: Half-lives and pharmacokinetic parameters of polypeptides vs HM-1
Details: in vivo; for half-life: T1/2β (half-life)

Row | AUC(0-inf) [ng·h/mL] | MRT inf [h] | clearance [mL/min/kg] | half-life [h] | Compound
1 | 30300 ± 7110 | 54.2 ± 9.93 | 0.553 | 37.55 ± 0.27 | C[C@H](NC(=O)CNC(=O)[C@H](CCCNC(=N)N)NC(=O)CCCCOCCOCCN1C(=O)C=CC1=O)C(=O)N[C@@H](CC(=O)O)C(=O)N[C@@H](CCCNC(=N)N)C(=O)N[C@@H](C)C(=O)NCC(=O)NCC(=O)NCC(=O)NCC(=O)N[C@@H](CCCNC(=N)N)C(=O)NCC(=O)N[C@@H](CC(=O)O)C(=O)O [X59] (X3-RGADRAGGGGRGD-OH)
2 | 30200 ± 7290 | 54.1 ± 11.7 | 0.552 | 37.51 ± 0.25 | C[C@H](NC(=O)CNC(=O)[C@H](CCCNC(=N)N)NC(=O)CCCCCOCCOCCN1C(=O)C=CC1=O)C(=O)N[C@@H](CC(=O)O)C(=O)N[C@@H](CCCNC(=N)N)C(=O)N[C@@H](C)C(=O)NCC(=O)NCC(=O)NCC(=O)NCC(=O)N[C@@H](CCCNC(=N)N)C(=O)NCC(=O)N[C@@H](CC(=O)O)C(=O)O [X60] (X2-RGADRAGGGGRGD-OH)
3 | 25600 ± 7550 | 45.7 ± 13.6 | 0.652 | 31.69 ± 0.28 | C[C@H](NC(=O)CNC(=O)[C@H](CCCNC(=N)N)NC(=O)CCCCCCOCCOCCN1C(=O)C=CC1=O)C(=O)N[C@@H](CC(=O)O)C(=O)N[C@@H](CCCNC(=N)N)C(=O)N[C@@H](C)C(=O)NCC(=O)NCC(=O)NCC(=O)NCC(=O)N[C@@H](CCCNC(=N)N)C(=O)NCC(=O)N[C@@H](CC(=O)O)C(=O)O [X61] (X16-RGADRAGGGGRGD-OH)
4 | 26700 ± 8160 | 47.8 ± 12.3 | 0.625 | 33.09 ± 0.28 | C[C@H](NC(=O)CNC(=O)[C@H](CCCNC(=N)N)NC(=O)CCCCCCCOCCOCCN1C(=O)C=CC1=O)C(=O)N[C@@H](CC(=O)O)C(=O)N[C@@H](CCCNC(=N)N)C(=O)N[C@@H](C)C(=O)NCC(=O)NCC(=O)NCC(=O)NCC(=O)N[C@@H](CCCNC(=N)N)C(=O)NCC(=O)N[C@@H](CC(=O)O)C(=O)O [X62] (X17-RGADRAGGGGRGD-OH)
5 | 32300 ± 7650 | 57.7 ± 13.3 | 0.517 | 39.97 ± 0.31 | C[C@H](NC(=O)CNC(=O)[C@H](CCCNC(=N)N)NC(=O)COCCOCCOCCN1C(=O)C=CC1=O)C(=O)N[C@@H](CC(=O)O)C(=O)N[C@@H](CCCNC(=N)N)C(=O)N[C@@H](C)C(=O)NCC(=O)NCC(=O)NCC(=O)NCC(=O)N[C@@H](CCCNC(=N)N)C(=O)NCC(=O)N[C@@H](CC(=O)O)C(=O)O [X63] (X31-RGADRAGGGGRGD-OH)
6 | 32300 ± 7250 | 57.7 ± 13 | 0.517 | 39.97 ± 0.28 | C[C@H](NC(=O)CNC(=O)[C@H](CCCNC(=N)N)NC(=O)CCOCCOCCOCCN1C(=O)C=CC1=O)C(=O)N[C@@H](CC(=O)O)C(=O)N[C@@H](CCCNC(=N)N)C(=O)N[C@@H](C)C(=O)NCC(=O)NCC(=O)NCC(=O)NCC(=O)N[C@@H](CCCNC(=N)N)C(=O)NCC(=O)N[C@@H](CC(=O)O)C(=O)O [X64] (X15-RGADRAGGGGRGD-OH)
7 | 31800 ± 7280 | 57.1 ± 12.2 | 0.523 | 39.53 ± 0.31 | C[C@H](NC(=O)CNC(=O)[C@H](CCCNC(=N)N)NC(=O)CCCOCCOCCOCCN1C(=O)C=CC1=O)C(=O)N[C@@H](CC(=O)O)C(=O)N[C@@H](CCCNC(=N)N)C(=O)N[C@@H](C)C(=O)NCC(=O)NCC(=O)NCC(=O)NCC(=O)N[C@@H](CCCNC(=N)N)C(=O)NCC(=O)N[C@@H](CC(=O)O)C(=O)O [X65] (X70-RGADRAGGGGRGD-OH)
8 | 27700 ± 7510 | 49.6 ± 9.77 | 0.602 | 34.38 ± 0.25 | C[C@H](NC(=O)CNC(=O)[C@H](CCCNC(=N)N)NC(=O)CCCCOCCOCCOCCN1C(=O)C=CC1=O)C(=O)N[C@@H](CC(=O)O)C(=O)N[C@@H](CCCNC(=N)N)C(=O)N[C@@H](C)C(=O)NCC(=O)NCC(=O)NCC(=O)NCC(=O)N[C@@H](CCCNC(=N)N)C(=O)NCC(=O)N[C@@H](CC(=O)O)C(=O)O [X66] (X33-RGADRAGGGGRGD-OH)
9 | 31600 ± 8030 | 56.4 ± 11.6 | 0.528 | 39.09 ± 0.28 | C[C@H](NC(=O)CNC(=O)[C@H](CCCNC(=N)N)NC(=O)CCCCCOCCOCCOCCN1C(=O)C=CC1=O)C(=O)N[C@@H](CC(=O)O)C(=O)N[C@@H](CCCNC(=N)N)C(=O)N[C@@H](C)C(=O)NCC(=O)NCC(=O)NCC(=O)NCC(=O)N[C@@H](CCCNC(=N)N)C(=O)NCC(=O)N[C@@H](CC(=O)O)C(=O)O [X67] (X34-RGADRAGGGGRGD-OH)
10 | 31800 ± 7920 | 57 ± 10.3 | 0.523 | 39.52 ± 0.34 | C[C@H](NC(=O)CNC(=O)[C@H](CCCNC(=N)N)NC(=O)CCCCCCOCCOCCOCCN1C(=O)C=CC1=O)C(=O)N[C@@H](CC(=O)O)C(=O)N[C@@H](CCCNC(=N)N)C(=O)N[C@@H](C)C(=O)NCC(=O)NCC(=O)NCC(=O)NCC(=O)N[C@@H](CCCNC(=N)N)C(=O)NCC(=O)N[C@@H](CC(=O)O)C(=O)O [X68] (X28-RGADRAGGGGRGD-OH)
